Converted amounts (≈) assume the structure as drawn.
Assays:
S. pyogenes 4340 = test: In vitro antibacterial activity, MIC (clinical isolates); assay type: cell-based; conditions: Streptococcus pyogenes; S. pyogenes 4340; 10^6 cells/ml; clinical isolate; read-out: MIC
S. marcescens GN 7577 = test: In vitro antibacterial activity, MIC (standard strain); assay type: cell-based; conditions: Serratia marcescens, GN7577; S. marcescens GN 7577; 10^6 cells/ml; standard strain; read-out: MIC
S. faecalis 49 = test: In vitro antibacterial activity, MIC (clinical isolates); assay type: cell-based; conditions: Enterococcus faecalis; S. faecalis 49; 10^6 cells/ml; clinical isolate; read-out: MIC
P. mirabilis IID 994 = test: In vitro antibacterial activity, MIC (standard strain); assay type: cell-based; conditions: Proteus mirabilis, IID994; P. mirabilis IID 994; 10^6 cells/ml; standard strain; read-out: MIC
S. agalactiae 4468 = test: In vitro antibacterial activity, MIC (clinical isolates); assay type: cell-based; conditions: Streptococcus agalactiae; S. agalactiae 4468; 10^6 cells/ml; clinical isolate; read-out: MIC
S. faecalis 214 = test: as above; assay type: cell-based; conditions: Enterococcus faecalis; S. faecalis 214; 10^6 cells/ml; clinical isolate; read-out: MIC
S. pneumoniae 2950 = test: as above; assay type: cell-based; conditions: Streptococcus pneumoniae; S. pneumoniae 2950; 10^6 cells/ml; clinical isolate; read-out: MIC
S. pneumoniae IID 552 = test: In vitro antibacterial activity, MIC (standard strain); assay type: cell-based; conditions: Streptococcus pneumoniae, IID552; S. pneumoniae IID 552; 10^6 cells/ml; standard strain; read-out: MIC
[1] = test system: Streptococcus pyogenes S-8; test: as above; assay type: cell-based; conditions: S8; Streptococcus pyogenes S-8; 10^6 cells/ml; standard strain; read-out: MIC
S. pyogenes 3102 = test: In vitro antibacterial activity, MIC (clinical isolates); assay type: cell-based; conditions: Streptococcus pyogenes; S. pyogenes 3102; 10^6 cells/ml; clinical isolate; read-out: MIC
[2] = test system: Salmonella entritidis IID 604; test: In vitro antibacterial activity, MIC (standard strain); assay type: cell-based; conditions: IID604; Salmonella entritidis IID 604; 10^6 cells/ml; standard strain; read-out: MIC
S. agalactiae 4394 = test: In vitro antibacterial activity, MIC (clinical isolates); assay type: cell-based; conditions: Streptococcus agalactiae; S. agalactiae 4394; 10^6 cells/ml; clinical isolate; read-out: MIC
[3] = test system: Pseudomonas aeruginosa V-1; test: In vitro antibacterial activity, MIC (standard strain); assay type: cell-based; conditions: V1; Pseudomonas aeruginosa V-1; 10^6 cells/ml; standard strain; read-out: MIC
S. agalactiae 4049 = test: In vitro antibacterial activity, MIC (clinical isolates); assay type: cell-based; conditions: Streptococcus agalactiae; S. agalactiae 4049; 10^6 cells/ml; clinical isolate; read-out: MIC
S. faecalis 401 = test: as above; assay type: cell-based; conditions: Enterococcus faecalis; S. faecalis 401; 10^6 cells/ml; clinical isolate; read-out: MIC
[4] = test system: Acinetobacter anitratus IID 876; test: In vitro antibacterial activity, MIC (standard strain); assay type: cell-based; conditions: Acinetobacter calcoaceticus, IID876, Acinetobacter anitratus IID 876; 10^6 cells/ml; standard strain; read-out: MIC
[5] = test system: Serratia marcescens IID 618; test: as above; assay type: cell-based; conditions: Serratia marcescens, IID618, Serratia marcescens IID 618; 10^6 cells/ml; standard strain; read-out: MIC
S. agalactiae 4368 = test: In vitro antibacterial activity, MIC (clinical isolates); assay type: cell-based; conditions: Streptococcus agalactiae; S. agalactiae 4368; 10^6 cells/ml; clinical isolate; read-out: MIC
S. aureus Smith = test: In vitro antibacterial activity, MIC (standard strain); assay type: cell-based, Staphylococcus aureus; conditions: Staphylococcus aureus; S. aureus Smith; 10^6 cells/ml; standard strain; read-out: MIC
S. pyogenes 3107 = test: In vitro antibacterial activity, MIC (clinical isolates); assay type: cell-based; conditions: Streptococcus pyogenes; S. pyogenes 3107; 10^6 cells/ml; clinical isolate; read-out: MIC
K. pneumoniae 1-220S = test: In vitro antibacterial activity, MIC (standard strain); assay type: cell-based; conditions: Klebsiella pneumoniae, 1220S; K. pneumoniae 1-220S; 10^6 cells/ml; standard strain; read-out: MIC
S. faecalis 402 = test: In vitro antibacterial activity, MIC (clinical isolates); assay type: cell-based; conditions: Enterococcus faecalis; S. faecalis 402; 10^6 cells/ml; clinical isolate; read-out: MIC
B. fragilis 0558 = test: In vitro antibacterial activity, MIC (standard strain); assay type: cell-based, Bacteroides fragilis; conditions: Bacteroides fragilis, 0558, B. fragilis 0558; 10^6 cells/ml; standard strain; read-out: MIC
[6] = test system: Proteus vulgaris IFO 3167; test: as above; assay type: cell-based; conditions: IFO3167; Proteus vulgaris IFO 3167; 10^6 cells/ml; standard strain; read-out: MIC
S. agalactiae 4342 = test: In vitro antibacterial activity, MIC (clinical isolates); assay type: cell-based; conditions: Streptococcus agalactiae; S. agalactiae 4342; 10^6 cells/ml; clinical isolate; read-out: MIC
S. pneumoniae 15 = test: as above; assay type: cell-based; conditions: Streptococcus pneumoniae; S. pneumoniae 15; 10^6 cells/ml; clinical isolate; read-out: MIC
S. pyogenes IID 692 = test: In vitro antibacterial activity, MIC (standard strain); assay type: cell-based; conditions: Streptococcus pyogenes, IID692; S. pyogenes IID 692; 10^6 cells/ml; standard strain; read-out: MIC
[7] = test system: Escherichia coli NIHJ JC-2; test: as above; assay type: cell-based; conditions: Escherichia coli, NIHJJC2, Escherichia coli NIHJ JC-2; 10^6 cells/ml; standard strain; read-out: MIC
[8] = test system: Klebsiella pneumoniae KY(GN)6445; test: as above; assay type: cell-based; conditions: Klebsiella pneumoniae KY(GN)6445; 10^6 cells/ml; standard strain; read-out: MIC
C. ramosum = test: as above; assay type: cell-based; conditions: Thomasclavelia ramosa; C. ramosum; 10^6 cells/ml; standard strain; read-out: MIC
[9] = test system: Yersinia enterocolitica IID 981; test: as above; assay type: cell-based; conditions: IID981; Yersinia enterocolitica IID 981; 10^6 cells/ml; standard strain; read-out: MIC

Structure (SMILES): CCNCC1CCN(c2c(F)cc3c(=O)c(C(=O)O)cn(C4CC4)c3c2Br)C1 (stereo not drawn) [Example 17, 8-Bromo-l-cyclopropyl-7-(3-ethylaminomethyl-l-pyrrolidinyl)-6-fluoro-1,4-dihydro-4-oxo-3-quinolinecarboxylic acid]
- MIC (S. pyogenes 4340): 0.05 µg/mL (≈ 0.111 µM)
- MIC (S. marcescens GN 7577): 0.78 µg/mL (≈ 1.72 µM)
- MIC (S. faecalis 49): 0.1 µg/mL (≈ 0.221 µM)
- MIC (P. mirabilis IID 994): 0.025 µg/mL (≈ 0.0553 µM)
- MIC (S. agalactiae 4468): 0.05 µg/mL (≈ 0.111 µM)
- MIC (S. faecalis 214): 0.1 µg/mL (≈ 0.221 µM)
- MIC (S. pneumoniae 2950): 0.05 µg/mL (≈ 0.111 µM)
- MIC (S. pneumoniae IID 552): 0.05 µg/mL (≈ 0.111 µM)
- MIC [1]: 0.05 µg/mL (≈ 0.111 µM)
- MIC (S. pyogenes 3102): 0.05 µg/mL (≈ 0.111 µM)
- MIC [2]: 0.1 µg/mL (≈ 0.221 µM)
- MIC (S. agalactiae 4394): 0.1 µg/mL (≈ 0.221 µM)
- MIC [3]: 0.39 µg/mL (≈ 0.862 µM)
- MIC (S. agalactiae 4049): 0.05 µg/mL (≈ 0.111 µM)
- MIC (S. faecalis 401): 0.1 µg/mL (≈ 0.221 µM)
- MIC [4]: 0.05 µg/mL (≈ 0.111 µM)
- MIC [5]: 0.1 µg/mL (≈ 0.221 µM)
- MIC (S. agalactiae 4368): 0.05 µg/mL (≈ 0.111 µM)
- MIC (S. aureus Smith): 0.0125 µg/mL (≈ 0.0276 µM)
- MIC (S. pyogenes 3107): 0.05 µg/mL (≈ 0.111 µM)
- MIC (K. pneumoniae 1-220S): 0.1 µg/mL (≈ 0.221 µM)
- MIC (S. faecalis 402): 0.1 µg/mL (≈ 0.221 µM)
- MIC (B. fragilis 0558): ≤ 0.05 µg/mL
- MIC [6]: 0.025 µg/mL (≈ 0.0553 µM)
- MIC (S. agalactiae 4342): 0.05 µg/mL (≈ 0.111 µM)
- MIC (S. pneumoniae 15): 0.05 µg/mL (≈ 0.111 µM)
- MIC (S. pyogenes IID 692): 0.05 µg/mL (≈ 0.111 µM)
- MIC [7]: 0.0125 µg/mL (≈ 0.0276 µM)
- MIC [8]: 0.05 µg/mL (≈ 0.111 µM)
- MIC (C. ramosum): 0.39 µg/mL (≈ 0.862 µM)
- MIC [9]: 0.1 µg/mL (≈ 0.221 µM)

Structure (SMILES): CN(C)CC1CCN(c2c(F)cc3c(=O)c(C(=O)O)cn(C4CC4)c3c2Cl)C1 (stereo not drawn) [Example 20, 8-Chloro-1-cyclopropyl-6-fluoro-1,4-dihydro-7-(3-dimethylaminomethyl-l-pyrrolidinyl)-4-oxo-3-quinolinecarboxylic acid]
- MIC (S. pyogenes 4340): 0.05 µg/mL (≈ 0.123 µM)
- MIC (S. marcescens GN 7577): 1.56 µg/mL (≈ 3.82 µM)
- MIC (S. faecalis 49): 0.1 µg/mL (≈ 0.245 µM)
- MIC (P. mirabilis IID 994): 0.05 µg/mL (≈ 0.123 µM)
- MIC (S. agalactiae 4468): 0.1 µg/mL (≈ 0.245 µM)
- MIC (S. faecalis 214): 0.1 µg/mL (≈ 0.245 µM)
- MIC (S. pneumoniae 2950): 0.05 µg/mL (≈ 0.123 µM)
- MIC (S. pneumoniae IID 552): 0.05 µg/mL (≈ 0.123 µM)
- MIC [1]: 0.05 µg/mL (≈ 0.123 µM)
- MIC (S. pyogenes 3102): 0.05 µg/mL (≈ 0.123 µM)
- MIC [2]: 0.1 µg/mL (≈ 0.245 µM)
- MIC (S. agalactiae 4394): 0.2 µg/mL (≈ 0.49 µM)
- MIC [3]: 0.39 µg/mL (≈ 0.956 µM)
- MIC (S. agalactiae 4049): 0.1 µg/mL (≈ 0.245 µM)
- MIC (S. faecalis 401): 0.1 µg/mL (≈ 0.245 µM)
- MIC [4]: 0.05 µg/mL (≈ 0.123 µM)
- MIC [5]: 0.1 µg/mL (≈ 0.245 µM)
- MIC (S. agalactiae 4368): 0.05 µg/mL (≈ 0.123 µM)
- MIC (S. aureus Smith): 0.025 µg/mL (≈ 0.0613 µM)
- MIC (S. pyogenes 3107): 0.05 µg/mL (≈ 0.123 µM)
- MIC (K. pneumoniae 1-220S): 0.1 µg/mL (≈ 0.245 µM)
- MIC (S. faecalis 402): 0.1 µg/mL (≈ 0.245 µM)
- MIC (B. fragilis 0558): ≤ 0.05 µg/mL
- MIC [6]: 0.05 µg/mL (≈ 0.123 µM)
- MIC (S. agalactiae 4342): 0.1 µg/mL (≈ 0.245 µM)
- MIC (S. pneumoniae 15): 0.05 µg/mL (≈ 0.123 µM)
- MIC (S. pyogenes IID 692): 0.1 µg/mL (≈ 0.245 µM)
- MIC [7]: 0.025 µg/mL (≈ 0.0613 µM)
- MIC [8]: 0.05 µg/mL (≈ 0.123 µM)
- MIC (C. ramosum): 0.39 µg/mL (≈ 0.956 µM)
- MIC [9]: 0.1 µg/mL (≈ 0.245 µM)

Source: EP0183129A1, “Quinolonecarboxylic acid derivatives” (KYORIN PHARMACEUTICAL CO., LTD., priority 1984, dated 1986)
